#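 Cultured in 96-well plates, cells were exposed to test compound for 48 hours across five concentrations. The concentration for full growth arrest is given as TGI.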
# Key:
# Experiment in all cases: DTP human tumour cell line panel, 48 h
# OVCAR-4 ovarian = system: OVCAR-4 ovarian
# HL-60(TB) leukemia = system: HL-60(TB) leukemia
# KM20L2 colon = system: KM20L2 colon
# NCI-H522 lung = system: NCI-H522 lung
# 786-0 renal = system: 786-0 renal
# LXFL 529 NSCLC = system: LXFL 529 NSCLC
# SF-268 CNS = system: SF-268 CNS
# M19-MEL melanoma = system: M19-MEL melanoma
# SW-620 colon = system: SW-620 colon
# UACC-62 melanoma = system: UACC-62 melanoma
# SK-MEL-28 melanoma = system: SK-MEL-28 melanoma
# RXF-631 renal = system: RXF-631 renal
# HOP-18 NSCLC = system: HOP-18 NSCLC
# DMS 273 small cell lung = system: DMS 273 small cell lung
# NCI-H226 lung = system: NCI-H226 lung
# M14 melanoma = system: M14 melanoma
# A549 NSCLC = system: A549 NSCLC
# HCT-116 colon = system: HCT-116 colon
# KM12 colon = system: KM12 colon
# TK-10 renal = system: TK-10 renal
# OVCAR-3 ovarian = system: OVCAR-3 ovarian
# SNB-19 CNS = system: SNB-19 CNS
# HCT-15 colon = system: HCT-15 colon
# OVCAR-5 ovarian = system: OVCAR-5 ovarian
# A498 renal = system: A498 renal
# CCRF-CEM leukemia = system: CCRF-CEM leukemia
# ACHN renal = system: ACHN renal
# DMS 114 small cell lung = system: DMS 114 small cell lung
# K-562 leukemia = system: K-562 leukemia
# DLD-1 colon = system: DLD-1 colon
# SK-MEL-5 melanoma = system: SK-MEL-5 melanoma
# UACC-257 melanoma = system: UACC-257 melanoma
# SK-OV-3 ovarian = system: SK-OV-3 ovarian
# HOP-62 NSCLC = system: HOP-62 NSCLC
# SK-MEL-2 melanoma = system: SK-MEL-2 melanoma
# HT29 colon = system: HT29 colon
# CAKI-1 renal = system: CAKI-1 renal
# UO-31 renal = system: UO-31 renal
# SF-539 CNS = system: SF-539 CNS
# SNB-75 CNS = system: SNB-75 CNS
# SN12C renal = system: SN12C renal
# COLO 205 colon = system: COLO 205 colon
# NCI-H23 lung = system: NCI-H23 lung
# XF 498 CNS = system: XF 498 CNS
# NCI-H460 lung = system: NCI-H460 lung
# HOP-92 NSCLC = system: HOP-92 NSCLC
# U251 CNS = system: U251 CNS
# IGROV1 ovarian = system: IGROV1 ovarian
# MALME-3M melanoma = system: MALME-3M melanoma
# EKVX NSCLC = system: EKVX NSCLC
# OVCAR-8 ovarian = system: OVCAR-8 ovarian
# SF-295 CNS = system: SF-295 CNS
# SNB-78 CNS = system: SNB-78 CNS
# SR leukemia = system: SR leukemia
# RPMI-8226 leukemia = system: RPMI-8226 leukemia
# HCC-2998 colon = system: HCC-2998 colon
# MOLT-4 leukemia = system: MOLT-4 leukemia
# RXF 393 renal = system: RXF 393 renal
# LOX IMVI melanoma = system: LOX IMVI melanoma
smiles,measurement,setting,value
NC(=O)n1ncc(Cl)c(Cl)c1=O,TGI,OVCAR-4 ovarian,> 100 µM
same,TGI,HL-60(TB) leukemia,> 100 µM
same,TGI,KM20L2 colon,> 100 µM
same,TGI,NCI-H522 lung,> 100 µM
same,TGI,786-0 renal,> 100 µM
same,TGI,LXFL 529 NSCLC,> 100 µM
same,TGI,SF-268 CNS,> 100 µM
same,TGI,M19-MEL melanoma,> 100 µM
same,TGI,SW-620 colon,> 100 µM
same,TGI,UACC-62 melanoma,> 100 µM
same,TGI,SK-MEL-28 melanoma,> 100 µM
same,TGI,RXF-631 renal,> 100 µM
same,TGI,HOP-18 NSCLC,> 100 µM
same,TGI,DMS 273 small cell lung,> 100 µM
same,TGI,NCI-H226 lung,> 100 µM
same,TGI,M14 melanoma,> 100 µM
same,TGI,A549 NSCLC,> 100 µM
same,TGI,HCT-116 colon,> 100 µM
same,TGI,KM12 colon,> 100 µM
same,TGI,TK-10 renal,> 100 µM
same,TGI,OVCAR-3 ovarian,> 100 µM
same,TGI,SNB-19 CNS,> 100 µM
same,TGI,HCT-15 colon,> 100 µM
same,TGI,OVCAR-5 ovarian,> 100 µM
same,TGI,A498 renal,> 100 µM
same,TGI,CCRF-CEM leukemia,> 100 µM
same,TGI,ACHN renal,> 100 µM
same,TGI,DMS 114 small cell lung,> 100 µM
same,TGI,K-562 leukemia,> 100 µM
same,TGI,DLD-1 colon,> 100 µM
same,TGI,SK-MEL-5 melanoma,> 100 µM
same,TGI,UACC-257 melanoma,> 100 µM
same,TGI,SK-OV-3 ovarian,> 100 µM
same,TGI,HOP-62 NSCLC,> 100 µM
same,TGI,SK-MEL-2 melanoma,> 100 µM
same,TGI,HT29 colon,> 100 µM
same,TGI,CAKI-1 renal,> 100 µM
same,TGI,UO-31 renal,> 100 µM
same,TGI,SF-539 CNS,> 100 µM
same,TGI,SNB-75 CNS,> 100 µM
same,TGI,SN12C renal,> 100 µM
same,TGI,COLO 205 colon,> 100 µM
same,TGI,NCI-H23 lung,> 100 µM
same,TGI,XF 498 CNS,> 100 µM
same,TGI,NCI-H460 lung,> 100 µM
same,TGI,HOP-92 NSCLC,> 100 µM
same,TGI,U251 CNS,> 100 µM
same,TGI,IGROV1 ovarian,> 100 µM
same,TGI,MALME-3M melanoma,> 100 µM
same,TGI,EKVX NSCLC,> 100 µM
same,TGI,OVCAR-8 ovarian,> 100 µM
same,TGI,SF-295 CNS,> 100 µM
same,TGI,SNB-78 CNS,> 100 µM
CNC(=S)NC(=S)N(C)C,TGI,OVCAR-4 ovarian,> 100 µM
same,TGI,HL-60(TB) leukemia,20 µM
same,TGI,KM20L2 colon,> 100 µM
same,TGI,NCI-H522 lung,> 100 µM
same,TGI,786-0 renal,> 100 µM
same,TGI,LXFL 529 NSCLC,> 100 µM
same,TGI,SF-268 CNS,> 100 µM
same,TGI,SW-620 colon,> 100 µM
same,TGI,SR leukemia,> 100 µM
same,TGI,SK-MEL-28 melanoma,> 100 µM
same,TGI,RXF-631 renal,> 100 µM
same,TGI,HOP-18 NSCLC,> 100 µM
same,TGI,RPMI-8226 leukemia,> 100 µM
same,TGI,NCI-H226 lung,> 100 µM
same,TGI,M14 melanoma,> 100 µM
same,TGI,A549 NSCLC,> 100 µM
same,TGI,HCT-116 colon,> 100 µM
same,TGI,TK-10 renal,> 100 µM
same,TGI,OVCAR-3 ovarian,> 100 µM
same,TGI,SNB-19 CNS,> 100 µM
same,TGI,HCT-15 colon,> 100 µM
same,TGI,HCC-2998 colon,> 100 µM
same,TGI,A498 renal,> 100 µM
same,TGI,ACHN renal,> 100 µM
same,TGI,DMS 114 small cell lung,> 100 µM
same,TGI,K-562 leukemia,> 100 µM
same,TGI,MOLT-4 leukemia,> 100 µM
same,TGI,DLD-1 colon,> 100 µM
same,TGI,UACC-257 melanoma,> 100 µM
same,TGI,SK-OV-3 ovarian,> 100 µM
same,TGI,HOP-62 NSCLC,> 100 µM
same,TGI,CAKI-1 renal,> 100 µM
same,TGI,UO-31 renal,> 100 µM
same,TGI,SF-539 CNS,> 100 µM
same,TGI,SNB-75 CNS,> 100 µM
same,TGI,SN12C renal,> 100 µM
same,TGI,RXF 393 renal,> 100 µM
same,TGI,LOX IMVI melanoma,> 100 µM
same,TGI,XF 498 CNS,> 100 µM
same,TGI,NCI-H460 lung,> 100 µM
same,TGI,HOP-92 NSCLC,> 100 µM
same,TGI,U251 CNS,> 100 µM
same,TGI,IGROV1 ovarian,> 100 µM
same,TGI,EKVX NSCLC,> 100 µM
same,TGI,OVCAR-8 ovarian,> 100 µM
same,TGI,SF-295 CNS,> 100 µM
same,TGI,SNB-78 CNS,> 100 µM
CCOC(=O)N1C(=O)C2C3C=CC(C2C1=O)C1C2C(=O)N(C(=O)OCC)C(=O)C2C31 (stereo not drawn),TGI,OVCAR-4 ovarian,> 100 µM
same,TGI,HL-60(TB) leukemia,41.1 µM
same,TGI,KM20L2 colon,> 100 µM
same,TGI,NCI-H522 lung,> 100 µM
same,TGI,786-0 renal,> 100 µM
same,TGI,LXFL 529 NSCLC,> 100 µM
same,TGI,SF-268 CNS,> 100 µM
same,TGI,M19-MEL melanoma,> 100 µM
same,TGI,SW-620 colon,> 59.4 µM
same,TGI,UACC-62 melanoma,> 100 µM
same,TGI,SK-MEL-28 melanoma,> 100 µM
same,TGI,RXF-631 renal,> 100 µM
same,TGI,HOP-18 NSCLC,> 100 µM
same,TGI,DMS 273 small cell lung,> 60.7 µM
same,TGI,RPMI-8226 leukemia,> 100 µM
same,TGI,NCI-H226 lung,> 100 µM
same,TGI,M14 melanoma,> 100 µM
same,TGI,A549 NSCLC,> 100 µM
same,TGI,HCT-116 colon,> 55.2 µM
same,TGI,KM12 colon,> 100 µM
same,TGI,TK-10 renal,> 100 µM
same,TGI,OVCAR-3 ovarian,> 100 µM
same,TGI,SNB-19 CNS,> 100 µM
same,TGI,HCT-15 colon,> 67.2 µM
same,TGI,HCC-2998 colon,> 100 µM
same,TGI,OVCAR-5 ovarian,> 100 µM
same,TGI,A498 renal,> 100 µM
same,TGI,CCRF-CEM leukemia,> 100 µM
same,TGI,ACHN renal,> 100 µM
same,TGI,DMS 114 small cell lung,> 70 µM
same,TGI,K-562 leukemia,> 100 µM
same,TGI,MOLT-4 leukemia,> 100 µM
same,TGI,DLD-1 colon,> 100 µM
same,TGI,SK-MEL-5 melanoma,> 100 µM
same,TGI,UACC-257 melanoma,> 100 µM
same,TGI,SK-OV-3 ovarian,> 100 µM
same,TGI,HOP-62 NSCLC,> 100 µM
same,TGI,SK-MEL-2 melanoma,> 100 µM
same,TGI,HT29 colon,> 100 µM
same,TGI,CAKI-1 renal,> 100 µM
same,TGI,UO-31 renal,> 100 µM
same,TGI,SF-539 CNS,> 100 µM
same,TGI,SNB-75 CNS,> 100 µM
same,TGI,SN12C renal,> 100 µM
same,TGI,COLO 205 colon,> 100 µM
same,TGI,RXF 393 renal,> 100 µM
same,TGI,LOX IMVI melanoma,> 64 µM
same,TGI,NCI-H23 lung,> 100 µM
same,TGI,XF 498 CNS,> 100 µM
same,TGI,NCI-H460 lung,> 64.4 µM
same,TGI,HOP-92 NSCLC,> 100 µM
same,TGI,U251 CNS,> 100 µM
same,TGI,IGROV1 ovarian,> 100 µM
same,TGI,MALME-3M melanoma,> 100 µM
same,TGI,EKVX NSCLC,> 100 µM
same,TGI,OVCAR-8 ovarian,> 100 µM
same,TGI,SF-295 CNS,> 100 µM
same,TGI,SNB-78 CNS,> 100 µM

# — PubChem BioAssay (NCI)
